The record followed here is paper PMC11539218 (Antimicrobial Agents and Chemotherapy, 2024).

This experiment relates to L. (L.) infantum promastigotes. Description: Short-time incubation IC50 assay in promastigotes (MTT). It counts as cell-based, Leishmania (L.) infantum. As to conditions: Leishmania infantum, promastigotes 2 × 10^6/well, 4 h of treatment, read-out: IC50 (50% inhibitory concentration), short-time incubation. Here is the method:
All experiments were performed with L. (L.) infantum promastigotes in the late-grown phase using a Hanks-Balanced Salt Solution medium supplemented with D-glucose (10 mM), exceptions were described. To establish the ideal time and concentration to investigate the mechanism of action (MoA), a new IC50 assay was performed in promastigotes in short-time incubation. Parasites (2 × 10^6/well) were treated with compound 1 serially diluted (1.6 to 300 µM) for 1, 2, 3, and 4 h, at 24°C. Parasite viability was determined using the MTT colorimetric method ([16]). Untreated cells were employed as a negative control.

For `C=CCc1cc(OC)c(OCc2ccc(OC)cc2)c(Oc2ccc(CN3CCOCC3)cc2OC)c1` [compound 1, 4-(4-(5-allyl-3-methoxy-2-((4-methoxybenzyl)oxy)phenoxy)-3-methoxybenzyl)morpholine], the IC50 stood at 169 µM.
